Measurements reported in patent US7632833B2, “Mitotic kinesin inhibitors” (Merck & Co., Inc., priority 2004, dated 2009).

What follows are molecules tested against T1, human poly-histidine tagged KSP motor domain (KSP(367H)) (Homo sapiens, UniProt P52732) (assay: Kinesin ATPase In Vitro Assay). Conditions: not given.
T1 construct: were used to amplify the motor domain and the neck linker region; made in house; host or cells: E. coli BL21 (DE3), vector pRSETa
T1 sequence (P52732 18-359 limits assumed): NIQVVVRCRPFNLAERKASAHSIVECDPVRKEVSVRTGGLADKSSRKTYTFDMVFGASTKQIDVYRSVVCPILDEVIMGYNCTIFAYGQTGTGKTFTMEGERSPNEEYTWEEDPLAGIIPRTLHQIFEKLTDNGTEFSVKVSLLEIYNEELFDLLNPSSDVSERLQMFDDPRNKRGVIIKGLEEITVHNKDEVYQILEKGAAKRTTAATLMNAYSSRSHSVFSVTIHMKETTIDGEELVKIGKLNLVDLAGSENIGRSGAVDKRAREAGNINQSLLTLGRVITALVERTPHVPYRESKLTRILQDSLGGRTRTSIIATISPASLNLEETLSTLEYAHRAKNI
Format: biochemical
Experimental: I. Kinesin ATPase In Vitro Assay
The N-terminal primer 5′-[…] (SEQ. ID. NO.: 1) and the C-terminal primer 5′-[…] […] (SEQ. ID. NO.: 2)
were used to amplify the motor domain and the neck linker region. The PCR products were digested with AseI and XhoI, ligated into the NdeI/XhoI digestion product of pRSETa (Invitrogen) and transformed into E. coli BL21 (DE3).
Cells were grown at 37° C. to an OD600 of 0.5. After cooling the culture to room temperature expression of KSP was induced with 100 μM IPTG and incubation was continued overnight. Cells were pelleted by centrifugation and washed once with ice-cold PBS. Pellets were flash-frozen and stored −80° C.
Protein Purification: Cell pellets were thawed on ice and resuspended in lysis buffer (50 mM K-HEPES, pH 8.0, 250 mM KCl, 0.1% Tween, 10 mM imidazole, 0.5 mM Mg-ATP, 1 mM PMSF, 2 mM benzimidine, 1× complete protease inhibitor cocktail (Roche)). Cell suspensions were incubated with 1 mg/ml lysozyme and 5 mM β-mercaptoethanol on ice for 10 minutes, followed by sonication (3×30 sec). All subsequent procedures were performed at 4° C. Lysates were centrifuged at 40,000×g for 40 minutes. Supernatants were diluted and loaded onto an SP Sepharose column (Pharmacia, 5 ml cartridge) in buffer A (50 mM K-HEPES, pH 6.8, 1 mM MgCl2, 1 mM EGTA, 10 μM Mg-ATP, 1 mM DTT) and eluted with a 0 to 750 mM KCl gradient in buffer A. Fractions containing KSP were pooled and incubated with Ni-NTA resin (Qiagen) for one hour. The resin was washed three times with buffer B (Lysis buffer minus PMSF and protease inhibitor cocktail), followed by three 15-minute incubations and washes with buffer B. Finally, the resin was incubated and washed for 15 minutes three times with buffer C (same as buffer B except for pH 6.0) and poured into a column. KSP was eluted with elution buffer (identical to buffer B except for 150 mM KCl and 250 mM imidazole). KSP-containing fractions were pooled, made 10% in sucrose, and stored at −80° C.
Microtubules are prepared from tubulin isolated from bovine brain. Purified tubulin (>97% MAP-free) at 1 mg/ml is polymerized at 37° C. in the presence of 10 μM paclitaxel, 1 mM DTT, 1 mM GTP in BRB80 buffer (80 mM K-PIPES, 1 mM EGTA, 1 mM MgCl2 at pH 6.8). The resulting microtubules are separated from non-polymerized tubulin by ultracentrifugation and removal of the supernatant. The pellet, containing the microtubules, is gently resuspended in 10 μM paclitaxel, 1 mM DTT, 50 μg/ml ampicillin, and 5 μg/ml chloramphenicol in BRB80.
The kinesin motor domain is incubated with microtubules, 1 mM ATP (1:1 MgCl2: Na-ATP), and compound at 23° C. in buffer containing 80 mM K-HEPES (pH 7.0), […], 1 mM DTT, 1 mM MgCl2, and 50 mM KCl. The reaction is terminated by a 2-10 fold dilution with a final buffer composition of 80 mM HEPES and 50 mM EDTA. […] The reaction is incubated for 10 minutes at 23° C., and the absorbance of the phospho-molybdate complex is measured at 540 nm.

SMILES	IC50 [µM]
CC(=O)C1=NN2c3cc(C)ccc3OCC2C1(CCCN1CCOCC1)c1ccccc1 [Compound 4-19, (3R,4R) 1-[8-methyl-3-(3-morpholin-4-ylpropyl)-3-phenyl-3a,4-dihydro-3H-pyrazolo[5,1-c][1,4]benzoxazin-2-yl]ethanone]	≤ 30
CC(=O)C1=NN2c3cc(F)ccc3OC[C@H]2[C@@]1(CCCO)c1ccccc1 [Compound 4-12, (3R,4R) 1-[8-fluoro-3-(3-hydroxypropyl)-3-phenyl-3a,4-dihydro-3H-pyrazolo[5,1-c][1,4]benzoxazin-2-yl]ethanone]	≤ 30
CC(=O)C1=NN2c3cc(F)ccc3OCC2C1(CCCN1CCNC(=O)CC1)c1ccccc1 [Compound 4-21, 1-{3-[(3R,4R)-2-acetyl-8-fluoro-3-phenyl-3a,4-dihydro-3H-pyrazolo[5,1-c][1,4]benzoxazin-3-yl]propyl}-1,4-diazepan-5-one]	≤ 30
CC(=O)C1=NN2c3cc(F)ccc3OC[C@H]2[C@H]1c1ccccc1 [Compound 1-8a, (3R,4R)-1-(8-Fluoro-3-phenyl-3a,4-dihydro-3H-pyrazolo[5,1-c][1,4]benzoxazin-2-yl)ethanone]	≤ 30

Same assay, conditions: (3R,4R) enantiomeric form tested; kinesin motor domain with microtubules, 1 mM ATP, 23° C., free phosphate by quinaldine red/ammonium molybdate; read-out: IC50

SMILES	IC50 [µM]
CC(=O)C1=NN2c3cc(F)ccc3OC[C@H]2[C@@]1(CCCN1CCN(C(=O)OC(C)(C)C)CC1)c1ccccc1 [Compound 4-24, tert-butyl 4-{3-[(3R,4R)-2-acetyl-8-fluoro-3-phenyl-3a,4-dihydro-3H-pyrazolo[5,1-c][1,4]benzoxazin-3-yl]propyl}piperazine-1-carboxylate]	≤ 30
CC(=O)C1=NN2c3cc(F)ccc3OC[C@H]2[C@@]1(CCCN1CCNC(=O)C1)c1ccccc1 [Compound 4-36, 4-{3-[(3R,4R)-2-acetyl-8-fluoro-3-phenyl-3a,4-dihydro-3H-pyrazolo[5,1-c][1,4]benzoxazin-3-yl]propyl}piperazin-2-one]	≤ 30
CC(=O)C1=NN2c3cc(F)ccc3OC[C@H]2[C@@]1(CCCN1CCN(C(N)=O)CC1)c1ccccc1 [Compound 4-27, 4-{3-[(3R,4R)-2-acetyl-8-fluoro-3-phenyl-3a,4-dihydro-3H-pyrazolo[5,1-c][1,4]benzoxazin-3-yl]propyl}piperazine-1-carboxamide]	≤ 30
COC(=O)C(=O)N1CCN(CCC[C@]2(c3ccccc3)C(C(C)=O)=NN3c4cc(F)ccc4OC[C@H]32)CC1 [Compound 4-31, methyl (4-{3-[(3R,4R)-2-acetyl-8-fluoro-3-phenyl-3a,4-dihydro-3H-pyrazolo[5,1-c][1,4]benzoxazin-3-yl]propyl}piperazin-1-yl)(oxo)acetate]	≤ 30
